Experimental data: article PMC5524190 (Biochemistry, 2016)
Like-named read-outs stand apart in the source and are kept apart here.

Tests used:
BaIMPDHΔL [1] = assay type: biochemical, Bacillus anthracis
BaIMPDHΔL [2] = assay type: biochemical, Bacillus anthracis; remark: listed apart in the source

SMILES | lower limit of k4 (NADH rebinding) (BaIMPDHΔL [1]) [M⁻¹ s⁻¹] | Ki (BaIMPDHΔL [1]; read-out: Ki(Q), predicted) [µM] | Ki (BaIMPDHΔL [1]; read-out: Ki(Q,B), predicted) [µM] | Ki (BaIMPDHΔL [2]; read-out: Ki(Q), observed ± std.err.) [µM] | Ki (BaIMPDHΔL [2]; read-out: Ki(Q,B), observed ± std.err.) [µM] | k2 (BaIMPDHΔL [1]) [M⁻¹ s⁻¹] | k−2 (BaIMPDHΔL [1]) [s⁻¹] | k−7 (BaIMPDHΔL [1]) [s⁻¹] | lower limit of k−7 (substrate inhibition by NAD+) (BaIMPDHΔL [1]) [M⁻¹ s⁻¹] | Ki (BaIMPDHΔL [1]; read-out: Ki(B), predicted) [µM] | Km (BaIMPDHΔL [1]; read-out: Km(B), predicted) [µM] | Kd (BaIMPDHΔL [1]; read-out: dissociation equilibrium constant k−7/k7 (substrate inhibition by NAD+)) [µM] | Ki (BaIMPDHΔL [2]; read-out: Ki(B), observed ± std.err.) [µM] | Km (BaIMPDHΔL [2]; read-out: Km(B), observed ± std.err.) [µM]
NC(=O)C1=CN([C@@H]2O[C@H](COP(=O)(O)OP(=O)(O)OC[C@H]3O[C@@H](n4cnc5c(N)ncnc54)[C@H](O)[C@@H]3O)[C@@H](O)[C@H]2O)C=CC1 [NADH] | > 2e+06 | 301 | 87.2 | 620 ± 360 | 97 ± 9 | – | – | – | – | – | – | – | – | –
NC(=O)c1ccc[n+]([C@@H]2O[C@H](COP(=O)([O-])OP(=O)(O)OC[C@H]3O[C@@H](n4cnc5c(N)ncnc54)[C@H](O)[C@@H]3O)[C@@H](O)[C@H]2O)c1 [NAD^+] | – | – | – | – | – | 31800 | 10.9 | 566000 | > 4000 | 6610 | 415 | ~5500 | 7400 ± 400 | 460 ± 20
